Assay results taken from US4822823A, “Aqueous preparation and method of preparation thereof” (priority 1986, dated 1989).
“Also recorded” adds a separate entry of the source. Read-outs that look alike come from different tables or passages of the source. One block for each compound: values may come before it.

Assays:
[1] = 25° C.; cited from earlier work
[2] = test system: experimental allergic asthma; conditions: IgE, rats; cited from earlier work
[3] = test system: experimental allergic asthma; conditions: IgG and IgE, Guinea pigs; cited from earlier work
5-riboxygenase = conditions: cited from earlier work
[4] = Stability test of compound (A) with α-cyclodextrin at varying pHs; assay type: physicochemical
Description: Stability test of compound (A) was performed in the following formula at varying pHs: […]
Purified Water amount totaling 1000 ml
Note: The data are represented in terms of persistence rate (%).

[5] = test system: production of SRS-A or LTB4; conditions: cited from earlier work
[6] = for enhancement of solubility of compound (A) (in words): phosphoric acid buffer pH 6.0
Description: The dissolution-assisting agents used as a control are β-cyclodextrin, γ-cyclodextrin, polyvinyl pyrrolidone (hereinbelow abbreviated as PVP), polyoxyethylene monostearate (hereinbelow abbreviated as MYS-40), polyoxyethylene sorbitan monooleate (hereinbelow abbreviated as TO-80), and polyoxyethylene cured castor oil (hereinbelow abbreviated as HCO-40, HCO-60).
Solubility was determined by dissolving the respective dissolution-assisting agents into 0.2 mole of phosphoric acid buffer solution (Na2 HPO4 NaH2 PO4, pH 6.0), then adding excessive amount of compound (A) and shaking the mixed solution at room temperature (15° C.~20° C.) for 5 days, centrifuging the solution, filtering the supernatant by use of cotton stoppers, and subsequently measuring the concentration of compound (A) contained in the filtrate with a high-speed liquid chromatography.

persistence rate ([4]; 60° C.-3 days, pH 4.0, with α-cyclodextrin): 101.2%
persistence rate ([4]; 60° C.-3 days, pH 5.0, with α-cyclodextrin): 102.6%
persistence rate ([4]; 60° C.-3 days, pH 6.0, with α-cyclodextrin): 102.5%
persistence rate ([4]; 60° C.-3 days, pH 7.0, with α-cyclodextrin): 93.3%
persistence rate ([4]; 60° C.-5 days, pH 4.0, with α-cyclodextrin): 102.5%
persistence rate ([4]; 60° C.-5 days, pH 5.0, with α-cyclodextrin): 99.5%
persistence rate ([4]; 60° C.-5 days, pH 6.0, with α-cyclodextrin): 102.8%
persistence rate ([4]; 60° C.-5 days, pH 7.0, with α-cyclodextrin): 87.6%
persistence rate ([4]; Room temp.-5 days, pH 4.0, with α-cyclodextrin): 99.6%
persistence rate ([4]; Room temp.-5 days, pH 5.0, with α-cyclodextrin): 103.0%
persistence rate ([4]; Room temp.-5 days, pH 6.0, with α-cyclodextrin): 99.4%
persistence rate ([4]; Room temp.-5 days, pH 7.0, with α-cyclodextrin): 99.1%
Compound: CC1=C(C)C(=O)C(CCCCC#CCCCC#CCO)=C(C)C1=O [Compound (A)]
solubility to water [1]: less than 10 ng/ml
effect on experimental allergic asthma (in words) [2]: showing experimental allergic asthma
effect on experimental allergic asthma (in words) [3]: showing experimental allergic asthma
5-riboxygenase inhibition (in words) (5-riboxygenase): selective inhibitor for 5-riboxygenase
inhibition of production of SRS-A or LTB4 (in words) [5]: inhibit the production of SRS-A or LTB4

solubility-enhancing effect relative to phosphoric acid buffer ([6]; compound (A), versus phosphoric acid buffer having pH 6): 1000 times
Compound: OC[C@H]1O[C@@H]2O[C@H]3[C@H](O)[C@@H](O)[C@@H](O[C@H]4[C@H](O)[C@@H](O)[C@@H](O[C@H]5[C@H](O)[C@@H](O)[C@@H](O[C@H]6[C@H](O)[C@@H](O)[C@@H](O[C@H]7[C@H](O)[C@@H](O)[C@@H](O[C@H]1[C@H](O)[C@H]2O)O[C@@H]7CO)O[C@@H]6CO)O[C@@H]5CO)O[C@@H]4CO)O[C@@H]3CO [α-cyclodextrin]
enhancement of solubility of compound (A) (in words) [6]: remarkably enhances the solubility of compound (A) without impairing its stability; also recorded: highly advantageous effect; also recorded: prominent enhancement of solubility

Compound: OC[C@H]1O[C@@H]2O[C@H]3[C@H](O)[C@@H](O)[C@@H](O[C@H]4[C@H](O)[C@@H](O)[C@@H](O[C@H]5[C@H](O)[C@@H](O)[C@@H](O[C@H]6[C@H](O)[C@@H](O)[C@@H](O[C@H]7[C@H](O)[C@@H](O)[C@@H](O[C@H]8[C@H](O)[C@@H](O)[C@@H](O[C@H]9[C@H](O)[C@@H](O)[C@@H](O[C@H]1[C@H](O)[C@H]2O)O[C@@H]9CO)O[C@@H]8CO)O[C@@H]7CO)O[C@@H]6CO)O[C@@H]5CO)O[C@@H]4CO)O[C@@H]3CO [γ-cyclodextrin, reference compound]
enhancement of solubility of compound (A) (in words) [6]: do not show any intended effect; also recorded: can hardly enhance the solubility

solubility-enhancing effect relative to phosphoric acid buffer ([6]; pH 6): 1000 times
Compound: dimethyl-β-cyclodextrin
